The nature of one data set: physchem. The settings on record: pH 7.4. An excerpt: Lipophilicity is a key determinant of the PK behavior of drugs. It can influence distribution into tissues, absorption and the binding characteristics of a drug, as well as being an important factor in determining the solubility of a compound. Log D (distribution co-efficient) is used as a measure of lipophilicity.
The solution was transferred to tubes, centrifuged and the supernatant is drawn off the top, leaving any solid compound in the bottom. This supernatant was then syringe filtered through 0.2 μm filters to produce the initial solution. Three vials were prepared containing values. […] The vials were mixed to equilibrium, then centrifuged to ensure the two phases were fully separated before the octanol was removed and the buffer samples analyzed. For the quantitative analysis, the aqueous solutions were analyzed by LC MS/MS. The amount of VCE-004.8 in each vial was quantified against a 6 points standard curve which was produced by serially diluting the initial solution. Log D was calculated using the equation, shown in FIG. 7, wherein ConcINITlAL is a concentration of compound in the initial aqueous solution, ConcFINAL is a concentration of compound in final aqueous phase, Vaq is a volume of aqueous phase, and Voct is a volume of octanol phase.

Data set [1] is described as follows: Solubility of VCE-004.8 and its phytosomes in buffer medium at various pH. Type of data set: physicochemical. The note with it: 37 °C, thermodynamic from solid. The method, then: The solubility of Phytosome-VCE-004.8 was tested in buffer medium at various pH (1.2, 4, 5, 6, […] and 8.0). For each pH, independent supersaturated solutions of VCE-004.8 and its phytosomes were prepared. The suspensions w ere sonicated for 10 min and kept in a water bath at 37° C. for 2 hr. Then the final suspensions were filtered (with 0.45 PTFE disposable fitter) and the solutions were injected for HPLC analysis. […] The 1:2 ratio resulted to be slightly more soluble than the 1:1 ration, and the best behavior was shown at neutral and basic pH. Accordingly. Phytosome 1:2 was selected for following assessment of PK profile in rats (Formulation n°8). Phytosome 1:2 contained 24% of VCE-004.8 and was prepared in Methyl cellulose 1% in water for oral administration.

The next data set concerns the target CB1 receptor (Homo sapiens, UniProt P21554). In words: Receptor screening study, CB1 receptor affinity. Type of data set: binding.
Data set [2] has as its system Experimental Autoimmune Encephalomyelitis (EAE) model. The data set is described as follows: Experimental autoimmune encephalomyelitis model. Type of data set: in vivo, C57BL/6 female mice. How it is done: EAE was induced in C57BL/6 female mice at 6-8 weeks of age by subcutaneous immunization with MOG35-55 (300 μg: peptide synthesis section, CBM, CSIC. Madrid, Spain) and 200 μg of Mycobacterium tuberculosis (H37Ra Difco, Franklin Lakes, N.J., USA) in a 1:1 mix with […]. On the same day and 2 days later, mice were injected intraperitoneally with 200 ng of pertussis toxin (Sigma) in 0.1 mL PBS. […] The mice were examined daily for clinical signs of EAE and disease scores were measured as follows: 0, no disease; 1, limb tail; 2, limb tail and hind limb weakness; 3, hind limb paralysis; 4, hind limb and front limb paralysis; 5, moribund and death. All animals were sacrificed at 28 days for further analysis,
Mice were anesthetized by i.p. administration with a ketamine-xylazine solution and they were transcardially perfused with saline 0.9%. The spinal cord was obtained by extrusion with saline. […]
For IHC analysis, free-floating thoracic spinal cord (50 μm) sections were washed with 0.1M PB. […] Samples were photographed, digitalized using a Leica DFC420c camera and analyzed using Image J software. Myelin integrity was analyzed using the Hito CryoMyelmStain™ Kit (Gold phosphate complex Myelin Staining Kit) following manufacturer's recommendation (Hitobiotech Corp., Kingsport, Tenn., USA). […]

Data set [3] concerns cuprizone/rapamycin (C/R) mouse model. The data set is described as follows: Cuprizone/rapamycin model, myelin assessment in grey and white matter. Type of data set: in vivo, Male C57BL/6J. How it is done:
Myelin assessment in grey and white matter was evaluated via: (1) PLP staining and density in the hippocampus and cortex; and (2) PPD staining and manual counts in the corpus callosum.
Male C57BL/6J (n=5 or 12/group) were treated for 12 weeks with C/R to cause demyelination of white and gray matter regions of the brain. […] Thereafter, the brains were harvested and processed for immunohistochemical staining and quantification of myelinated axons in gray matter (hippocampus (HIP), cerebral cortex (CTX)) by proteolipid protein (PLP) staining and white matter (corpus callosum CC)) by paraphenylenediamine (PPD) staining.

[4] abbreviates: oral 5, 10, 20 mg/kg/day for 6 weeks, vs vehicle control.

Converted amounts (≈) assume the structure as drawn.

Chain of CB1 receptor (P21554 whole entry): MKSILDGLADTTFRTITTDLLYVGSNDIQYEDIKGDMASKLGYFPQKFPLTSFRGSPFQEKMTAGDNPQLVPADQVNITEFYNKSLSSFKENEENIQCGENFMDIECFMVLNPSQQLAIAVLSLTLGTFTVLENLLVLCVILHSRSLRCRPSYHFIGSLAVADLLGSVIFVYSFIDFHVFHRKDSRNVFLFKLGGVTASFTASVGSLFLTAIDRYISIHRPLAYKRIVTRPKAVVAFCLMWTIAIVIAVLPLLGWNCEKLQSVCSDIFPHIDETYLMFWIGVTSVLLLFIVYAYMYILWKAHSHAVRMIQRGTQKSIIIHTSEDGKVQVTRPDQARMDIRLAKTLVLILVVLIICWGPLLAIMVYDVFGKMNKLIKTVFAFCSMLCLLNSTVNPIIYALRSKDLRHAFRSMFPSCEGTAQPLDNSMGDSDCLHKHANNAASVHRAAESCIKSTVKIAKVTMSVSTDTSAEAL

By logD is commonly meant the decadic logarithm of the distribution of all forms, ionised or not, between an organic phase and buffer at a given pH. Low values mean lower lipophilicity, high ones higher lipophilicity. Usually solubility (thermodynamic) stands for solubility found after equilibrating the solid with the medium. Take `C=C(C)C1CCC(C)=C[C@H]1C1=C(O)C(=O)C(CCCCC)=C(NCc2ccccc2)C1=O` (stereo partly drawn) [VCE-004.8, (1′R,6′R)-3-(Benzylamine)-6-hydroxy-3′-methyl-4-pentyl-6′-(prop-1-en-2-yl)[1,1′-bi(cyclohexane)]-2′,3,6-triene-2,5-dione]: the logD in “physchem” is more than 5. Further, the solubility (thermodynamic) at 2 h was 5 ng/mL (≈ 11.5 nM) in data set [1] (pH 1.2, simulated gastric fluid); 5 ng/mL (≈ 11.5 nM) in data set [1] (pH 4.5, aqueous buffer); 3 ng/mL (≈ 6.92 nM) in data set [1] (pH 6.8, aqueous buffer); 1 ng/mL (≈ 2.31 nM) in data set [1] (pH 7.4, aqueous buffer); 1 ng/mL (≈ 2.31 nM) in data set [1] (pH 8, aqueous buffer). The “affinity for the CB1 receptor” value is listed as “did not show affinity” at CB1 receptor (at a concentration of 10 μM (4336 ng/mL)) and “no detectable affinity” on CB1 receptor (receptor screening study). For the same molecule, the “microglial reactivity and infiltration of inflammatory cells” value in data set [2] (EAE animals, myelin structure preserved) is recorded as “significantly reduced”. In data set [2] (doses of 5 mg/kg, 10 mg/kg, and 20 mg/kg), the “therapeutic effect in EAE model” value is given as “highly significant therapeutic effect”. The “levels of myelinated axons in white matter (corpus callosum), dose relation” value in data set [3] was “dose related effect”. For the same molecule, in data set [3] (setting [4]), the “area of PLP staining / myelination in the cortex” value is reported as “no significant increase”. Moreover, the “area of PLP staining / myelination in the hippocampus” value in data set [3] (setting [4]) is listed as “no significant increase”.
